Assay results taken from US20220354845A1, “METHODS FOR ENHANCING DNA DAMAGE AND APOPTOSIS OF LEUKEMIC CELLS” (Thomas Jefferson University, priority 2019, published 2022).

Key:
THP-1 cells [1] = experiment: DNA damage by γ-H2A.X foci and western blot in THP-1 cells; format: cell-based, human; settings: for number of γ-H2A.X foci compared to untreated cells: single agent, Bleomycin 5 μM, Doxorubicin 0.1 μM, Etoposide 0.1 μM
Procedure: DNA damage evaluation by analysis of γ-H2A.X foci. […] Lower panels show γ-H2A.X signals only. […] In FIG. 6C, DNA damage was assessed by γ-H2A.X western blot in drug-treated THP-1 cell extracts.
(§1) FIG. 10B is a series of images showing immunofluorescence microscopy of γ-H2A.X foci in untreated or drug-treated (Doxorubicin 0.1 μM, palbociclib 500 nM) THP-1 cells. γ-H2A.X light gray, DAPI dark gray. In FIG. 10C, apoptosis was analyzed by Caspase 3/7 activity by flow cytometry.
The role of chromatin structure in cytotoxic agent-induced DNA damage was also assessed by investigating the formation of γ-H2A.X foci by confocal microscopy.

[2] = tested on: Y641 and A677 mutants of EZH2; settings: cited from earlier work
H3K27me3 in THP-1 cells = experiment: H3K27me3 levels in THP-1 cells (CAA, western blot, ChIP-seq); format: cell-based, human
Procedure: (§2) FIGS. 4A-4B illustrate the ability of EZH2 inhibitor to affect H3K27me3 binding. […] Cells were labeled with EdU for 15 minutes. CAA was performed with H3K27me3 antibody. Following PLA, cells were immunostained for EdU.
(§3) Box plot of ChIP-seq read density is shown. FIG. 14B is an example showing the COL93A locus.
(§4) Chromatin assembly assay: Cells were grown on chamber slides, pulse-labeled with 5 μM EdU and fixed at room temperature with 4% formaldehyde in PBS for 15 min, washed with PBS, and permeabilized with 0.3% Triton for 15 min. Cells were subjected to Click-iT reaction with biotin-azide for 30 min. The PLA reactions (Olink) between the anti-biotin antibody and antibodies to other proteins were performed as described by Olink. Following PLA, cells were immunostained with anti-biotin Alexa Fluor 488 antibody to control the specificity of CAA. The results of CAA experiments shown in FIG. 1A were quantified by counting the number of PLA signals per EdU-labeled nuclei in 50 cells of each of the three independent experiments. The nature of the results in the rest of the figures alleviated the need to quantify the results of these assays.
(§5) Since DNA-damaging agents (eg., Doxorubicin) preferentially induce double strand breaks (DSBs) in more de-condensed regions of chromatin, some epigenetic inhibitors may render leukemic cells more susceptible to DNA damage. […]

[3] = tested on: H3K27me3 in AML primary cells; experiment: H3K27me3 on nascent DNA of AML primary cells (CAA, western blot); format: cell-based, human; settings: GSK126 for 12 hours
Procedure: as §2, §4, §5

THP-1 cells [4] = experiment: Comet assay in drug-treated THP-1 cells; format: cell-based, human; settings: co-treatment with GSK126 and Doxorubicin
THP-1 cells [5] = experiment: RAD51 foci formation in Doxorubicin-treated THP-1 cells; format: cell-based, human; settings: GSK126 5 μM, Doxorubicin 0.1 μM; 12, 24, 36, 72 hrs
Excerpt: FIG. 7 illustrates the kinetics of RAD51 foci formation in Doxorubicin-treated THP-1 cells. […] RAD51 foci were detected by immunofluorescence in the pre-washed cultures (12 hrs), and at 24, 36, and 72 hrs post Doxorubicin washing.

primary CD34+ AML cells = experiment: γ-H2A.X foci and comet assay in primary CD34+ AML cells; format: cell-based, human; settings: co-treated with GSK126 (5 μM) and Doxorubicin (0.3 or 0.1 μM), 24 h
Excerpt: FIGS. 8A-8D illustrate that inhibition of EZH2 enhances DNA damage as assessed by γ-H2A.X foci and comet assay in primary CD34+ AML cells. […] Immunofluorescence microscopy of γ-H2A.X foci (representative cells). γ-H2A.X light gray, DAPI, dark gray. Lower panels show γ-H2A.X signals only. […] Immunofluorescence microscopy of γ-H2A.X foci (representative cells). γ-H2A.X light gray, DAPI, dark gray. Lower panels show γ-H2A.X signals only.

THP-1 cells [6] = experiment: Apoptosis by Caspase-3/7 activity (flow cytometry) in THP-1 cells; format: cell-based, human
Procedure: (§6) FIGS. 9A-9B illustrate apoptosis of drug-treated cells. THP-1 (FIG. 9A) and primary CD34+ AML samples (FIG. 9B) were left untreated (CNTR), treated with Doxorubicin alone (0.1 μM), Etoposide alone (0.5 μM) or in combination with the EZH2 inhibitor GSK-126 (0.5 μM) for 48 hours. Apoptosis was analyzed by Caspase-3/7 activity by flow cytometry.
as §1, with “FIGS. 10A-10C illustrate that treatment with the CDK4/CDK6 inhibitor palbociclib suppresses Doxorubicin-induced DNA damage. […] FIG. 10B” for “FIG. 10B”
THP-1 cells were treated with Palbociclib (500 nM) for 24 hours to induce a G1-arrest. […] Anova ***p<0.001; (Right) Apoptosis analyzed by Caspase 3/7 activity by flow cytometry. Mean+/−SEM. Anova; *p<0.1 **p<0.01
To assess whether cell cycle synchronization through pre-conditioning with a CDK4/6 inhibitor prior to treatment, a subsequent study was performed in which THP-1 cells were treated with Palbociclib (500 nM) for 24 hours to induce a G1-arrest. […] (FIG. 15, Right) Apoptosis of treated cells was also analyzed by Caspase 3/7 activity by flow cytometry.

[7] = tested on: primary CD34+ AML samples; experiment: Apoptosis by Caspase-3/7 activity (flow cytometry) in primary CD34+ AML samples; format: cell-based, human; settings: CD34+ AML cells, co-treatment GSK-126 (0.5 μM) and Doxorubicin (0.1 μM), 48 hours
Procedure: as §6

[8] = tested on: THP-1 and human CD34+ primary AML cells; experiment: DNA content analysis and myeloid marker flow cytometry of AML cells; format: cell-based; settings: GSK126 alone
[9] = tested on: primary ASXL1-mutated AML sample; experiment: γ-H2A.X foci in primary ASXL1-mutated AML sample; format: cell-based, human; settings: CD34+ cells with frameshift ASXL1 mutation (G646fs*12); co-treatment with GSK126 (5 nM), 24 hours
Procedure: FIGS. 13A-13B illustrate accumulation of H3K27me3 on nascent DNA of a human primary ASXL1 mutated AML sample. In FIG. 13A, DNA was labeled with EdU for 15 minutes. Following conjugation with biotin, CAA was performed between nascent DNA (biotin) and H3K27me3. PLA (bright gray), Edu (biotin; light gray), DAPI; dark gray). Lower panels show PLA signals only. […] DNA Damage evaluation by analysis of γ-H2A.X foci. […] Immunofluorescence microscopy of γ-H2A.X foci (representative cells). γ-H2A.X light gray, DAPI, dark gray. Lower panels show γ-H2A.X signals only.
Mutations of ASXL1 are more frequent than EZH2 mutations and may cause a decrease in global H3K27me3 level and in the accumulation of this marker on nascent DNA. The H3K27me3 marker was not detected on Edu-labeled, nascent DNA of CD34+ […] cells carrying a frameshift ASXL1 mutation causing a premature termination (G646fs*12) in ˜50% of the cells, favoring a state of ‘open’ chromatin (FIGS. 13A and 13B).

THP-1 cells [10] = experiment: ChIP-seq of γ-H2A.X in THP-1 cells; format: cell-based, human; settings: THP-1 cells co-treated with GSK126
Excerpt: as §3
Without wishing to be bound by theory, a more relaxed chromatin structure may be more susceptible to DNA damage.

[11] = tested on: primary blasts from AML patient #22324; experiment: CAA (PLA) between EdU-labeled DNA and ATRIP at sites of DNA damage; format: cell-based, human; settings: GSK343 12 hours, then 10 μM Bleomycin 1 hr
Procedure: Cells were labeled with EdU for 10 minutes and treated with 10 μM Bleomycin (Bleo) for 1 hr. CAA (PLA, dark) was performed between EdU and ATRIP protein. Chromatin assembly assay: Cells were grown on chamber slides, pulse-labeled with 5 μM EdU and fixed at room temperature with 4% formaldehyde in PBS for 15 min, washed with PBS, and permeabilized with 0.3% Triton for 15 min. Cells were subjected to Click-iT reaction with biotin-azide for 30 min. The PLA reactions (Olink) between the anti-biotin antibody and antibodies to other proteins were performed as described by Olink. Following PLA, cells were immunostained with anti-biotin Alexa Fluor 488 antibody to control the specificity of CAA. The results of CAA experiments shown in FIG. 1A were quantified by counting the number of PLA signals per EdU-labeled nuclei in 50 cells of each of the three independent experiments.

For `COc1cccc2c1C(=O)c1c(O)c3c(c(O)c1C2=O)C[C@@](O)(C(=O)CO)C[C@@H]3O[C@H]1C[C@H](N)[C@H](O)[C@H](C)O1` [Doxorubicin], the “number of γ-H2A.X foci compared to untreated cells” value (THP-1 cells [1]; 24 hours) was “markedly increased”.
In the case of `Cc1cc(C)c(CNC(=O)c2cc(-c3ccc(CN4CCOCC4)cc3)cc3c2cnn3C2CCCC2)c(=O)[nH]1` [EPZ005687], the “inhibition of the Y641 and A677 mutants of EZH2” value [2] is listed as “can also inhibit”.
With `CC[C@H](C)n1cc(C)c2c(C(=O)NCc3c(C)cc(C)[nH]c3=O)cc(-c3ccc(N4CCNCC4)nc3)cc21` [GSK126] the “chromatin conformation (H3K27me3 on nascent DNA, CAA)” value (H3K27me3 in THP-1 cells; GSK126 for 12 hours) was “switching the chromatin conformation from “closed” to “open””, the “global levels of H3K27me3 (ChIP-seq)” value (H3K27me3 in THP-1 cells; GSK126 for 24 hours) was “marked decrease” and the “chromatin conformation (H3K27me3 on nascent DNA, CAA)” value [3] was “switching the chromatin conformation from “closed” to “open””. The “number and mean fluorescence intensity of γ-H2A.X foci and γ-H2A.X levels” value (THP-1 cells [1]; co-treatment of GSK126 (5 μM) with bleomycin, Doxorubicin or etoposide, 24 hours, vs cytotoxic agent alone) was “further increased”, the “DNA damage by comet assay” value (THP-1 cells [4]) was “Increased DNA damage” and the “number of RAD51 foci (DSBs repair) following Doxorubicin-induced DNA damage” value (THP-1 cells [5]) was “not diminished”. For the same molecule, the “DNA damage (γ-H2A.X foci and comet assay)” value (primary CD34+ AML cells) was “Higher levels of DNA damage”, the “apoptosis (Caspase-3/7 activity)” value (THP-1 cells [6]; THP-1, co-treatment GSK-126 (0.5 μM) and Doxorubicin (0.1 μM), 48 hours) was “enhanced apoptosis” and the “DNA damage/apoptosis induced by treatment with Ara-C only” value (THP-1 cells [6]; THP-1 cells ex vivo, GSK126 with Ara-C) was “did not enhance”. The “apoptosis (Caspase-3/7 activity)” value [7] was “enhanced apoptosis”, the “proliferation of AML cells (DNA content analysis)” value ([8]; 48 hrs, THP-1 and CD34+ primary AML cells) was “no effect” and the “differentiation of AML cells (myeloid marker expression)” value ([8]; 5 days, AML #013 cells) was “no effect”. The “Doxorubicin-induced DNA damage (γ-H2A.X foci)” value [9] was “did not increase” and the “Doxorubicin-induced γ-H2A.X signals (ChIP-seq)” value (THP-1 cells [10]) was “increased”.
In the case of `CCCc1cc(C)[nH]c(=O)c1CNC(=O)c1cc(-c2ccnc(N3CCN(C)CC3)c2)cc2c1cnn2C(C)C` [GSK343], the “recruitment of ATRIP to sites of DNA damage induced by bleomycin” value [11] was “significantly increased recruitment of ATRIP”.
With `CCOC(=O)CCNc1cc(N2CCc3ccccc3CC2)nc(-c2ccccn2)n1` [GSKJ4] the “enhancement of Doxorubicin-induced DNA damage” value (THP-1 cells [1]; THP-1 cells treated with GSKJ4) was “did not enhance”.
With `COc1cc([C@@H]2c3cc4c(cc3[C@@H](O[C@@H]3O[C@@H]5CO[C@@H](C)O[C@H]5[C@H](O)[C@H]3O)[C@H]3COC(=O)[C@H]23)OCO4)cc(OC)c1O` [etoposide] the “number of γ-H2A.X foci compared to untreated cells” value (THP-1 cells [1]; 24 hours) was “markedly increased”.
With bleomycin the “number of γ-H2A.X foci compared to untreated cells” value (THP-1 cells [1]; 24 hours) was “markedly increased”.
